Data as given in ChEMBL document CHEMBL5649169 (ChemMedChem, 2018).

Legend:
[1] = target: Phosphatidate cytidylyltransferase 2 (Homo sapiens) (UniProt O95674); further: assay method not described here
[2] = target: Choline/ethanolaminephosphotransferase 1 (Homo sapiens) (UniProt Q9Y6K0); further: assay method not described here
[3] = target: Nucleolar RNA helicase 2 (Homo sapiens) (UniProt Q9NR30); further: assay method not described here
[4] = target: Man(5)GlcNAc(2)-PP-dolichol translocation protein RFT1 (Homo sapiens) (UniProt Q96AA3); further: assay method not described here
[5] = target: Sec1 family domain-containing protein 1 (Homo sapiens) (UniProt Q8WVM8); further: assay method not described here
[6] = target: Aldo-keto reductase family 1 member D1 (Homo sapiens) (UniProt P51857); further: assay method not described here
[7] = target: Rho guanine nucleotide exchange factor 1 (Homo sapiens) (UniProt Q92888); further: assay method not described here
[8] = target: Serine hydrolase BPHL (Homo sapiens) (UniProt Q86WA6); further: assay method not described here
[9] = target: Complement component 1 Q subcomponent-binding protein, mitochondrial (Homo sapiens) (UniProt Q07021); further: assay method not described here
[10] = target: Cleavage and polyadenylation specificity factor subunit 1 (Homo sapiens) (UniProt Q10570); further: assay method not described here
Homo sapiens [11] = species on record: Homo sapiens; further: assay method not described here
[12] = target: Centrosome and spindle pole-associated protein 1 (Homo sapiens) (UniProt Q1MSJ5); further: assay method not described here
Cullin-5 (Homo sapiens) = Cullin-5 (Homo sapiens) (UniProt Q93034); further: assay method not described here
[13] = target: N(G),N(G)-dimethylarginine dimethylaminohydrolase 1 (Homo sapiens) (UniProt O94760); further: assay method not described here
[14] = target: ATP-dependent RNA helicase DHX29 (Homo sapiens) (UniProt Q7Z478); further: assay method not described here
[15] = target: FAD synthase (Homo sapiens) (UniProt Q8NFF5); further: assay method not described here
Homo sapiens [16] = species on record: Homo sapiens; remark: listed apart in the source; further: assay method not described here
[17] = target: Inositol 1,4,5-trisphosphate-gated calcium channel ITPR1 (Homo sapiens) (UniProt Q14643); further: assay method not described here
[18] = target: Kelch-like protein 6 (Homo sapiens) (UniProt Q8WZ60); further: assay method not described here
[19] = target: Small ribosomal subunit protein mS34 (Homo sapiens) (UniProt P82930); further: assay method not described here
[20] = target: ATP synthase F(0) complex subunit 8 (Homo sapiens) (UniProt P03928); further: assay method not described here
[21] = target: Phosphorylated adapter RNA export protein (Homo sapiens) (UniProt Q9H814); further: assay method not described here
[22] = target: E3 ubiquitin-protein ligase RBX1 (Homo sapiens) (UniProt P62877); further: assay method not described here
Homo sapiens [23] = species on record: Homo sapiens; remark: listed apart in the source; further: assay method not described here
Homo sapiens [24] = species on record: Homo sapiens; remark: listed apart in the source; further: assay method not described here
[25] = target: 14-3-3 protein sigma (Homo sapiens) (UniProt P31947); further: assay method not described here
[26] = target: SWI/SNF-related matrix-associated actin-dependent regulator of chromatin subfamily A member 1 (Homo sapiens) (UniProt P28370); further: assay method not described here
[27] = target: Serine/threonine-protein phosphatase 4 regulatory subunit 3A (Homo sapiens) (UniProt Q6IN85); further: assay method not described here
[28] = target: Sorting nexin-2 (Homo sapiens) (UniProt O60749); further: assay method not described here
[29] = target: Receptor for retinol uptake STRA6 (Homo sapiens) (UniProt Q9BX79); further: assay method not described here
[30] = target: Dual specificity testis-specific protein kinase 1 (Homo sapiens) (UniProt Q15569); further: assay method not described here
Homo sapiens [31] = species on record: Homo sapiens; remark: listed apart in the source; further: assay method not described here
[32] = target: Vacuolar protein sorting-associated protein 51 homolog (Homo sapiens) (UniProt Q9UID3); further: assay method not described here
[33] = target: Protein YIF1A (Homo sapiens) (UniProt O95070); further: assay method not described here
Ephrin type-A receptor 2 = Ephrin type-A receptor 2 (Homo sapiens, UniProt P29317); experiment: Binding affinity to recombinant human EPHA2 (D596 to G900 residues) expressed in insect cells incubated for 30 mins by MST assay; parameters: species or system Insect cell
[34] = target: Acyl-CoA dehydrogenase family member 11 (Homo sapiens) (UniProt Q709F0); further: assay method not described here
[35] = target: Chloride intracellular channel protein 4 (Homo sapiens) (UniProt Q9Y696); further: assay method not described here
[36] = target: Conserved oligomeric Golgi complex subunit 6 (Homo sapiens) (UniProt Q9Y2V7); further: assay method not described here
[37] = target: Dolichol-phosphate mannosyltransferase subunit 1 (Homo sapiens) (UniProt O60762); further: assay method not described here
[38] = target: Dolichyl-diphosphooligosaccharide--protein glycosyltransferase subunit MAGT1 (Homo sapiens) (UniProt Q9H0U3); further: assay method not described here
[39] = target: DNA mismatch repair protein Msh6 (Homo sapiens) (UniProt P52701); further: assay method not described here
[40] = target: Dynamin-like GTPase OPA1, mitochondrial (Homo sapiens) (UniProt O60313); further: assay method not described here
[41] = target: Serine/arginine-rich splicing factor 2 (Homo sapiens) (UniProt Q01130); further: assay method not described here
[42] = target: Serine-threonine kinase receptor-associated protein (Homo sapiens) (UniProt Q9Y3F4); further: assay method not described here
[43] = target: Transaldolase (Homo sapiens) (UniProt P37837); further: assay method not described here
[44] = target: Tubulin beta-2B chain (Homo sapiens) (UniProt Q9BVA1); further: assay method not described here
[45] = target: Elongation factor Tu, mitochondrial (Homo sapiens) (UniProt P49411); further: assay method not described here

`Cc1ccc(C(=O)Nc2cccc(C(F)(F)F)c2)cc1Nc1nc(-c2cccnc2)nc2c1cnn2C` showed an ED50 [1] of 4330 nM, an ED50 [2] of 3.97 nM and an ED50 [3] of 384 nM. For the same compound, the ED50 [4] was 1130 nM, the ED50 [5] was 171 nM and the ED50 [6] was 71.9 nM. The ED50 [7] was 1700 nM, the ED50 [8] was 13200 nM and the ED50 [9] was 34.8 nM. For the same compound, the ED50 [10] was 11.8 nM, the ED50 (Homo sapiens [11]) was 59 nM and the ED50 [12] was 1410 nM. The ED50 (Cullin-5 (Homo sapiens)) was 676 nM, the ED50 [13] was 61800 nM and the ED50 [14] was 15300 nM. For the same compound, the ED50 [15] was 998 nM, the ED50 (Homo sapiens [16]) was 887 nM and the ED50 [17] was 3430 nM. For the same compound, the ED50 [18] was 56.7 nM, the ED50 [19] was 27.9 nM and the ED50 [20] was 45600 nM. It also gave an ED50 [21] of 3510 nM, an ED50 [22] of 2980 nM and an ED50 (Homo sapiens [23]) of 29.9 nM. It also gave an ED50 (Homo sapiens [24]) of 5360 nM, an ED50 [25] of 3.06 nM and an ED50 [26] of 14.1 nM. The ED50 [27] was 33 nM, the ED50 [28] was 0.171 nM and the ED50 [29] was 73.5 nM. The ED50 [30] was 0.117 nM, the ED50 (Homo sapiens [31]) was 1.71 nM and the ED50 [32] was 5200 nM. For the same compound, the ED50 [33] was 30 nM.
In the case of `Cc1ccc(C(=O)Nc2cccc(C(F)(F)F)c2)cc1Nc1nc(-c2cccnc2)nc2nn(C)cc12`, the Kd (Ephrin type-A receptor 2) is reported as 73 nM, the ED50 [34] is reported as 137 nM and the ED50 [35] is reported as 53.4 nM. For the same compound, the ED50 [36] was 139000 nM, the ED50 [37] was 2900 nM and the ED50 [38] was 686 nM. The ED50 [39] was 49.5 nM, the ED50 [40] was 72.9 nM and the ED50 [41] was 9.31 nM. It also gave an ED50 [42] of 17.7 nM, an ED50 [43] of 359 nM and an ED50 [44] of 14 nM. It also gave an ED50 [45] of 32700 nM.
